# Measurements taken from patent publication US20100075965A1, “PI3 KINASE INHIBITORS AND METHODS OF THEIR USE” (Novartis AG, priority 2006, published 2010).
# Read-outs that look alike come from different tables or passages of the source.
# Tests used:
# PI3 K Alpha = PI3 K Alpha (Homo sapiens, UniProt P42336); experiment: PI3 kinase phosphorylation assays (homogenous solution phase, one step solid phase, ATP depletion/KinaseGlo); assay type: biochemical
# Procedure: Compounds to be tested are dissolved in DMSO and directly distributed into 384-well flashplates at 1.25 μL per well. To start the reaction, 20 μL of 6 nM PI3 kinase are added into each well followed by 20 μL of 400 nM ATP containing a trace of radiolabeled ATP and 900 nM 1-alpha-phosphatidylinositol (PI). The plates are briefly centrifuged to remove any air gap. The reaction is performed for 15 minutes and then stopped by the addition of 20 μL of 100 mM EDTA. The stopped reaction is incubated overnight at RT to allow the lipid substrate to bind by hydrophobic interaction to the surface of the flashplate. The liquid in the wells is then washed away, and the labeled substrate is detected with scintillation counting.
# This method is similar to Assay 1 except that the lipid substrate (1-alpha-phosphatidylinositol (PI)) is first dissolved in a coating buffer and incubated on flashplate at room temperature overnight to allow the lipid substrate to bind by hydrophobic interaction to the surface of the flashplate. Unbound substrate is then washed away. On the day of assay, 20 μL of 6 nM PI3 kinase are added into each well followed by 20 μL of 400 nM ATP containing trace of radiolabeled ATP. Compounds are added together with enzyme and ATP to the lipid-coated plates. The plates are briefly centrifuged to remove any air gap. The reaction is performed for two to three hours. The reaction is stopped by addition of 20 μL of 100 mM EDTA or by immediate plate washing. Phosphorylated lipid substrate is detected by scintillation counting.
# Compounds to be tested are dissolved in DMSO and directly distributed into a black 384-well plate at 1.25 μL per well. To start the reaction, 25 μL of 10 nM PI3 kinase and 5 μg/mL 1-alpha-phosphatidylinositol (PI) are added into each well followed by 25 μL of 2 μM ATP. The reaction is performed until approx 50% of the ATP is depleted, and then stopped by the addition of 25 μL of KinaseGlo solution. The stopped reaction is incubated for 5 minutes and the remaining ATP is then detected via luminescence.
# A2780 cells = experiment: Viability assay in A2780 (Cell Titer Glo); assay type: cell-based, human; conditions: A2780 cells, read-out: A2780 Cell prolif. EC50
# Procedure: Cell viability was assessed with Cell Titer Glo assay, Promega. Cells were seeded in TC treated 96-well plates at a density of 1,000 (A2780 cells) per well in DMEM with 10% FBS, 1% Sodium Pyruvate, and 1% Penicillin Streptomycin for a minimum of 2 hrs prior to addition of compound. Test compounds were serially diluted (3 fold) in DMSO to 500× the final concentration. For each concentration of test compound, 2 μL (500×) aliquots of compound or 100% DMSO (control) were diluted in 500 μL of culture medium to 2× final concentration then diluted 1× on the cells. Cells were incubated for 72 hrs at 37° C., 5% CO2. After which Cell Titer Glo is added to determine viable cells, the assay was performed according to the manufacturer's instruction (Promega Corporation, Madison, Wis. USA). Each experimental condition was performed in duplicate. Raw data was imported in Abase and EC50s calculated with XL-fit data analysis software and are shown in Tables 1 and 2 in the column labeled “A2780 Cell prolif. EC50”.
# [1] = ATP depletion assay, read-out: PI3 K Alpha IC50
# Sequence of PI3 K Alpha (P42336 whole entry): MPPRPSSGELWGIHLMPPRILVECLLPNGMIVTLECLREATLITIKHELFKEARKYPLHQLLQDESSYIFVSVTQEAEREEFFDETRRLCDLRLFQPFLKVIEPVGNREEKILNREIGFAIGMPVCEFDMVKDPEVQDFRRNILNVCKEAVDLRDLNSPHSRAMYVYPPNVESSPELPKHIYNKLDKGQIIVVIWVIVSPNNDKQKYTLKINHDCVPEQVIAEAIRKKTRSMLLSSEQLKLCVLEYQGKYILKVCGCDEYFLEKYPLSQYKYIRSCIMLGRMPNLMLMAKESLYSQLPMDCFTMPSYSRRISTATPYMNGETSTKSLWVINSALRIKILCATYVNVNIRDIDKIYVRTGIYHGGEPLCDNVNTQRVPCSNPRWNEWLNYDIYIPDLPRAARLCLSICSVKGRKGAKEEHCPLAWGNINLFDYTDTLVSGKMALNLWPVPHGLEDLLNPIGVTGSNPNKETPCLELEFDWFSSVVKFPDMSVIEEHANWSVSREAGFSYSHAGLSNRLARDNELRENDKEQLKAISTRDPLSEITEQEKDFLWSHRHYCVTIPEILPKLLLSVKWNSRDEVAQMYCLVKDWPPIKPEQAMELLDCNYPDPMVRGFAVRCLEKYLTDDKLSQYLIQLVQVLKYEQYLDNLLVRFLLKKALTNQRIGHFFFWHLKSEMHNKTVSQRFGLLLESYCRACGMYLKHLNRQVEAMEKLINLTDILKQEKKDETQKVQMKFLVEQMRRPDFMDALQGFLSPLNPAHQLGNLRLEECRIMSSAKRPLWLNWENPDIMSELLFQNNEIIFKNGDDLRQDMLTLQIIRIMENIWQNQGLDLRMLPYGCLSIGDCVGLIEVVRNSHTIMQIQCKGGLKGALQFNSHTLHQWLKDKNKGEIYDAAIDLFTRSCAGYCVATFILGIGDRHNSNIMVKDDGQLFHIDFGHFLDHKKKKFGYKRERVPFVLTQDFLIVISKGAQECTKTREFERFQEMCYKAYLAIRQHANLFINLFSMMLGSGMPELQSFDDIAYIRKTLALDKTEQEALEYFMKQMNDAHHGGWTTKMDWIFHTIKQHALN
# Sequence of PI3 K Alpha (P27986 whole entry partner): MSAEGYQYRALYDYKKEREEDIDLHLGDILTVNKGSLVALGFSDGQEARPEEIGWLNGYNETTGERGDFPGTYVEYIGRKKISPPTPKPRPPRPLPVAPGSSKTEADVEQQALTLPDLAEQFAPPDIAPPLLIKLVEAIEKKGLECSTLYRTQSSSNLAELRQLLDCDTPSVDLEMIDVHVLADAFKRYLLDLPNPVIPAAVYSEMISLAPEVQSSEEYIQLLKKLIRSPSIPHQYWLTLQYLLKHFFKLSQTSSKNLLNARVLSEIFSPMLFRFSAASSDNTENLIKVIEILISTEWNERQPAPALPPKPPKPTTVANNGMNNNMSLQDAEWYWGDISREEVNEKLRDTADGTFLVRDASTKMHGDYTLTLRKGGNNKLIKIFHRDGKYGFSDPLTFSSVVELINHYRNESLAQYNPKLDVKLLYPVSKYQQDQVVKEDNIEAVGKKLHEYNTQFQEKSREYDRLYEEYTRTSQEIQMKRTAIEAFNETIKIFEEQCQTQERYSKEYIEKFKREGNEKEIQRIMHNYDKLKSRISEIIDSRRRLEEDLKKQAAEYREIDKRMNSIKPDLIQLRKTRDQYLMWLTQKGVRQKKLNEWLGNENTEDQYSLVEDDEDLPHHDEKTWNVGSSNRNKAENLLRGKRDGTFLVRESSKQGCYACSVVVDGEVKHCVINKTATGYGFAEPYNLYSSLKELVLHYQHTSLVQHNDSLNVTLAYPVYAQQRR
Structure (SMILES),IC50 (PI3 K Alpha; read-out: PI3K Alpha IC50),EC50 (A2780 cells; Homo sapiens),also measured
"CC(=O)Nc1nc2ccc(-c3cnc(N)nc3C(F)(F)F)cc2s1 [Example 2-13, N-[6-(2-Amino-4-trifluoromethyl-pyrimidin-5-yl)-benzothiazol-2-yl]-acetamide]",–,–,"IC50 (PI3 K Alpha; [1]): < 1 µM; EC50 (A2780 cells; Homo sapiens, 72 hrs): < 25 µM"
"CC(=O)Nc1nc2cc(C)c(-c3cnc(N)c(C(F)(F)F)c3)cc2s1 [Example 2-28, N-[6-(6-Amino-5-trifluoromethyl-pyridin-3-yl)-5-methyl-benzothiazol-2-yl]-acetamide]",–,–,"IC50 (PI3 K Alpha; [1]): < 1 µM; EC50 (A2780 cells; Homo sapiens, 72 hrs): < 25 µM"
"CC(=O)Nc1nc2cc(F)c(-c3cnc(N)c(C(F)(F)F)c3)cc2s1 [Example 2-29, N-[6-(6-Amino-5-trifluoromethyl-pyridin-3-yl)-5-fluoro-benzothiazol-2-yl]-acetamide]",–,–,"IC50 (PI3 K Alpha; [1]): < 1 µM; EC50 (A2780 cells; Homo sapiens, 72 hrs): < 25 µM"
"Nc1ccc(C(=O)Nc2nc3ccc(-c4cnc(N)c(C(F)(F)F)c4)cc3s2)cn1 [Example 2-34, 6-amino-N-(6-(6-amino-5-(trifluoromethyl)pyridin-3-yl)benzo[d]thiazol-2-yl)nicotinamide]",–,–,"IC50 (PI3 K Alpha; [1]): < 1 µM; EC50 (A2780 cells; Homo sapiens, 72 hrs): < 1 µM"
"CC(=O)Nc1cccc(-c2c(NC(C)=O)nc3ccc(-c4cnc(N)c(C(F)(F)F)c4)cn23)c1 [Example 9, N-[3-(3-Acetylamino-phenyl)-6-(6-amino-5-trifluoromethyl-pyridin-3-yl)-imidazo[1,2-a]pyridin-2-yl]-acetamide]",< 1 µM,< 25 µM,–
"CC(=O)Nc1nc2ccc(-c3cnc(N)c(C(F)(F)F)c3)cn2c1-c1cccc(F)c1 [Example 10, N-[6-(6-Amino-5-trifluoromethyl-pyridin-3-yl)-3-(3-fluoro-phenyl)-imidazo[1,2-a]pyridin-2-yl]-acetamide]",< 1 µM,< 25 µM,–
"CC(=O)Nc1nc2ccc(-c3cnc(N)c(Br)c3)cn2c1Br [Example 15, N-[6-(6-Amino-5-bromo-pyridin-3-yl)-3-bromo-imidazo[1,2-a]pyridin-2-yl]-acetamide]",< 1 µM,< 10 µM,–
"CC(=O)Nc1cn2nc(-c3cnc(N)cc3C(F)(F)F)ccc2n1 [Example 24, N-[6-(6-Amino-4-trifluoromethyl-pyridin-3-yl)-imidazo[1,2-b]pyridazin-2-yl]-acetamide]",< 1 µM,< 25 µM,–
"CCCc1c(NC(C)=O)nc2ccc(-c3cnc(N)c(C(F)(F)F)c3)cn12 [Example 31, N-[6-(6-Amino-5-trifluoromethyl-pyridin-3-yl)-3-propyl-imidazo[1,2-a]pyridin-2-yl]-acetamide]",< 1 µM,< 25 µM,–
"CNC(=O)[C@@H]1CCN1C(=O)Nc1cn2cc(-c3cnc(N)c(C(F)(F)F)c3)ccc2n1 [Example 36, (S)-N1-(6-(6-amino-5-(trifluoromethyl)pyridin-3-yl)imidazo[1,2-a]pyridin-2-yl)-N2-methylazetidine-1,2-dicarboxamide]",< 25 µM,< 25 µM,–
"COc1c(-c2cnc(N)c(C(F)(F)F)c2)ccc2nc(NC(=O)C(F)(F)F)cn12 [Example 37, N-(6-(6-amino-5-(trifluoromethyl)pyridin-3-yl)-5-methoxy-imidazo[1,2-a]pyridin-2-yl)-2,2,2-trifluoroacetamide]",< 25 µM,< 25 µM,–
"Nc1ncc(-c2ccc3nc(NC(=O)[C@@H]4CCCN4)cn3c2)cc1C(F)(F)F [Example 38, (S)-N-(6-(6-amino-5-(trifluoromethyl)pyridin-3-yl)imidazo[1,2-a]pyridin-2-yl)pyrrolidine-2-carboxamide]",< 25 µM,< 10 µM,–
"CC(=O)Nc1cn2cc(-c3cnc(N)c(OC4CCN(C)CC4)n3)ccc2n1 [Example 40, N-(6-(5-amino-6-(1-methylpiperidin-4-yloxy)pyrazin-2-yl)imidazo[1,2-a]pyridin-2-yl)acetamide]",< 10 µM,< 25 µM,–
Nc1ncc(-c2ccc3nc(NC(=O)C(F)(F)F)cn3c2O)cc1C(F)(F)F [Example 41],< 10 µM,< 25 µM,–
"CCN(CC)CCOc1cc(-c2ccc3nc(NC(C)=O)cn3c2)cnc1N [Example 42, N-(6-(6-amino-5-(2-(diethylamino)ethoxy)pyridin-3-yl)imidazo[1,2-a]pyridin-2-yl)acetamide]",< 10 µM,< 25 µM,–
"COc1cc(-c2ccc3nc(NC(C)=O)cn3n2)c(C)nc1N [Example 43, N-(6-(6-amino-5-methoxy-2-methylpyridin-3-yl)imidazo[1,2-b]pyridazin-2-yl)acetamide]",< 10 µM,< 25 µM,–
CC(C)(C(=O)Nc1cn2cc(-c3cnc(N)c(C(F)(F)F)c3)ccc2n1)c1ccccc1 [Example 44],< 10 µM,< 25 µM,–
"COc1ccc(C2CCCN2C(=O)Nc2cn3cc(-c4cnc(N)c(C(F)(F)F)c4)ccc3n2)cc1OC (stereo not drawn) [Example 276, N-(6-(6-amino-5-(trifluoromethyl)pyridin-3-yl)imidazo[1,2-a]pyridin-2-yl)-2-(3,4-dimethoxyphenyl) pyrrolidine-1-carboxamide]",< 1 µM,–,–
"CC(C)(C)OC(=O)N1CCC1C(=O)Nc1cn2nc(-c3cnc(N)c(C(F)(F)F)c3)ccc2n1 (stereo not drawn) [Example 279, tert-butyl 2-(6-(6-amino-5-(trifluoromethyl)pyridin-3-yl)imidazo[1,2-b]pyridazin-2-ylcarbamoyl) azetidine-1-carboxylate]",–,–,EC50 (A2780 cells): < 25 µM

# More lines, main results first:
IC50 (PI3 K Alpha; read-out: PI3K Alpha IC50),EC50 (A2780 cells; Homo sapiens),Structure (SMILES),also measured
< 1 µM,–,"COc1ccccc1C1CCCN1C(=O)Nc1cn2cc(-c3cnc(N)c(C(F)(F)F)c3)ccc2n1 (stereo not drawn) [Example 277, N-(6-(6-amino-5-(trifluoromethyl)pyridin-3-yl)imidazo[1,2-a]pyridin-2-yl)-2-(2-methoxyphenyl) pyrrolidine-1-carboxamide]",–
–,< 25 µM,"CC(C)C(=O)Nc1cn2cc(-c3cnc(N)c(C(F)(F)F)c3)ccc2n1 [Example 278, N-(6-(6-amino-5-(trifluoromethyl)pyridin-3-yl)imidazo[1,2-a]pyridin-2-yl)isobutyramide]",–
–,< 25 µM,"CC(=O)Nc1cn2cc(-c3cnc(N)c(OC4CCNCC4)n3)ccc2n1 [Example 280, N-(6-(5-amino-6-(piperidin-4-yloxy)pyrazin-2-yl)imidazo[1,2-a]pyridin-2-yl)acetamide]",–
–,< 25 µM,"CNC(=O)[C@@H]1CCCN1C(=O)Nc1cn2cc(-c3cnc(N)c(C(F)(F)F)c3)ccc2n1 [Example 281, (S)-N1-(6-(6-amino-5-(trifluoromethyl)pyridin-3-yl)imidazo[1,2-a]pyridin-2-yl)-N2-methylpyrrolidine-1,2-dicarboxamide]",–
–,< 25 µM,"CC(=O)N1CCCC[C@H]1C(=O)Nc1cn2cc(-c3cnc(N)c(C(F)(F)F)c3)ccc2n1 [Example 282, (S)-1-acetyl-N-(6-(6-amino-5-(trifluoromethyl)pyridin-3-yl)imidazo[1,2-a]pyridin-2-yl)piperidine-2-carboxamide]",–
–,< 10 µM,"CC(=O)Nc1cn2nc(-c3cnc(N)c(OCC(F)(F)F)n3)ccc2n1 [Example 284, N-(6-(5-amino-6-(2,2,2-trifluoroethoxy)pyrazin-2-yl)imidazo[1,2-b]pyridazin-2-yl)acetamide]",–
–,< 10 µM,"NC(=O)[C@@H]1CCCN1C(=O)Nc1cn2cc(-c3cnc(N)c(C(F)(F)F)c3)ccc2n1 [Example 285, (S)-N1-(6-(6-amino-5-(trifluoromethyl)pyridin-3-yl)imidazo[1,2-a]pyridin-2-yl)pyrrolidine-1,2-dicarboxamide]",–
–,< 10 µM,"CCN1CCC(Oc2nc(-c3ccc4nc(NC(C)=O)cn4c3)cnc2N)CC1 [Example 286, N-(6-(5-amino-6-(1-ethylpiperidin-4-yloxy)pyrazin-2-yl)imidazo[1,2-a]pyridin-2-yl)acetamide]",–
–,< 10 µM,"COCCOc1nc(-c2ccc3nc(NC(C)=O)cn3n2)cnc1N [Example 287, N-(6-(5-amino-6-(2-methoxyethoxy)pyrazin-2-yl)imidazo[1,2-b]pyridazin-2-yl)acetamide]",–
